Data reported in US12174190B2, “Combined markers for metastatic cancer and uses thereof” (Albert Einstein College of Medicine, priority 2017, dated 2024).

Key:
Format in all cases: in vivo, human
MenaINV = MenaINV gene expression in FNA biopsy samples by real-time RT-PCR before and after NAC with paclitaxel; details: FNA biopsies from 5 breast cancer patients, before vs after 2 weeks of NAC with paclitaxel; FIG. 5E
Experimental: (§1) FIG. 5A-5D. Neoadjuvant chemotherapy increases TMEM, MenaCalc and MenaINV scores in some breast cancer patients. Paclitaxel (and other cytotoxic chemotherapy) increases TMEM Score, MenaCalc and MenaINV expression in breast cancer patients treated with neoadjuvant chemotherapy (NAC). (A) Study design. (B) Individual TMEM scores of 20 patients before and after receiving NAC, which included weekly paclitaxel (80 mg/m^2×12 consecutive weeks) followed sequentially by dose-dense AC chemotherapy (doxorubicin 60 mg/m^2 and cyclophosphamide 600 mg/m^2 every 2 weeks×4 cycles, plus pegrastim 6 mg SC on day 2 of each cycle). Horizontal line; TMEM high-risk cutoff point. For each pair of bars, Pre-NAC scores are shown in the first bar in the pair and Post-NAC scores are shown in the second bar. […] (D) MenaCalc expression in fine needle aspiration (FNA) biopsies, as assessed by real-time RT-PCR from 4 patients before and after 2 doses of neo-adjuvant chemotherapy with paclitaxel. (E) MenaINV gene expression in FNA biopsy samples, as assessed by real-time RT-PCR, taken from 5 breast cancer patients before and after 2-weeks of receiving NAC with paclitaxel. […]
(§2) MenaCalc expression was determined in fine needle aspiration (FNA) biopsies, as assessed by real-time RT-PCR from 4 patients before and after 2 doses of neo-adjuvant chemotherapy with paclitaxel (see FIG. 5D). […]

MenaCalc = MenaCalc expression in FNA biopsies by real-time RT-PCR before and after NAC with paclitaxel; details: FNA biopsies from 4 patients, before vs after 2 doses of neo-adjuvant paclitaxel; FIG. 5D
Experimental: as §1, §2

[1] = system: TMEM (Tumor Microenvironment of Metastasis); experiment: TMEM score in breast cancers before and after neoadjuvant chemotherapy (NAC); details: 20 breast cancer patients, before vs after NAC (weekly paclitaxel 80 mg/m^2 x 12 weeks followed by dose-dense AC); FIG. 5B-C
Experimental: as §1, with “point.” for “point. For each pair of bars, Pre-NAC scores are shown in the first bar in the pair and Post-NAC scores are shown in the second bar.”
Individual TMEM scores of 20 patients were determined before and after receiving NAC, which included weekly paclitaxel (80 mg/m^2×12 consecutive weeks) followed sequentially by dose-dense AC chemotherapy (doxorubicin 60 mg/m^2 and cyclophosphamide 600 mg/m^2 every 2 weeks×4 cycles, plus pegrastim 6 mg SC on day 2 of each cycle) (see FIG. 5B). […]

CC(=O)O[C@H]1C(=O)[C@@]2(C)[C@H]([C@H](OC(=O)c3ccccc3)[C@]3(O)C[C@H](OC(=O)[C@H](O)[C@@H](NC(=O)c4ccccc4)c4ccccc4)C(C)=C1C3(C)C)[C@]1(OC(C)=O)CO[C@@H]1C[C@@H]2O [paclitaxel]
increases: MenaINV expression (MenaINV) | MenaCalc expression (MenaCalc) | TMEM Score [1]
